Tested on: Caco-2 monolayers
Assay: Apical to basolateral permeability of LY through Caco-2 monolayers (Transwell, 12-well)
Format: in vitro ADME, human
Settings: for LY Papp, µ best fit of Normal distribution to Papp / LY Papp, µ directly from Papp: single sampling at 60 min
Method: Caco-2 cells culture and monolayers preparation was as described in the reference protocol. Cells were maintained in T75 cm^2 flasks in culture medium (DMEM supplemented with 1% (v/v) NEAA, 10% (v/v) heat-inactivated FBS), in a humidified atmosphere of 5% CO2 at 37 °C. As recommended in the reference protocol, the permeability assays were performed using cells in passages 95–105. The cells were thawed on passage 89 and sub-cultured twice a week at or shortly before 90% confluency by a 1:8 split. To avoid seeding aggregated cells and the formation of multilayers in Transwell™ inserts, the cell clusters were disaggregated into single cells by passing them 3 times through a syringe needle of 23 gauges (BD Falcon) before cell counting. Caco-2 cells were seeded at 2.6 × 10^5 cells/cm^2 on 12-well polycarbonate filter inserts. The culture medium (with 1% (v/v) Pen/Strep) was replaced by fresh medium 6 h following seeding and then every 2–3 days thereafter until transport experiments.
The reference protocol was followed in the permeability assays, with slight modifications as required by the new experimental approach. Manipulation of the cell monolayers was conducted under sterile conditions (in the laminar flow hood or incubator). At the day of the experiments, the culture medium was removed and HBSS (further supplemented with 25 mM HEPES, 0.35 g/L sodium bicarbonate, pH 7.4) pre-warmed to 37 °C was added to the donor (0.5 mL) and receiver (1.5 mL) sides to wash the cell monolayers. The plate containing the inserts was placed (lid-covered) in an incubator without CO2 at 37 °C with an orbital shaker (IKA-Schüttler MTS4, JMGS, Lisboa, Portugal) at 50 rpm for 8 min. The washing step was repeated with new HBSS. The TEER was measured in HBSS at 37 °C using a Millicell® ERS-2 voltmeter equipped with a chopstick electrode pair (Merck, Lisboa, Portugal). A filter insert without cells was included in each set of experiments for correction of the TEER value for the background resistance. The resistance values (Ω cm^2) of the cell monolayers were obtained by subtracting the TEER value from blank inserts and multiplying by the surface area of the insert. All cell monolayers presented TEER values above 200 Ω cm^2. At least one insert of the set was fixed and stained for confocal microscopy analysis (see next section). The remaining ones were used to perform the apical to basolateral permeability assays with the paracellular marker LY. For this, the donor HBSS washing solution was decanted, and the inserts were placed into empty wells of a fresh 12-well plate. The permeability assay was initiated with the addition of 450 µL of the LY solution (20 µM in HBSS at 37 °C) simultaneously to the donor compartments of 3 to 4 insert, from which a 50 µL aliquot was immediately collected and stored for the calculation of the solute concentration in the donor compartment at t = 0. The inserts containing the LY solution were subsequently positioned in a pre-prepared 12-well plate containing HBSS (1.2 mL per well), and the lid-covered plate was placed on the incubator (without CO2, 50 rpm and 37 °C). At the defined sampling times, the plate was positioned into the laminar flow hood and the inserts were transferred into new wells containing fresh HBSS. The high fluorescence quantum yield of LY allows its detection by […], even for the very small amount expected to permeate during short permeation intervals. In this work we used 10, 20, 30, and 60 min or 60 min only as sampling times. At the end of the assay, inserts were transferred to empty wells and 50 µL was taken from the donor compartment for the calculation of the solute mass balance. The remaining solution was decanted, the inserts were placed on new wells containing 1.5 mL of pre-warm HBSS, and 0.5 mL of pre-warmed HBSS was added to each insert for TEER measurements. Some selected monolayers were prepared for microscopy; the remaining were incubated with culture media for re-use, as described below. […]

[1] = day 22, both sampling intervals (10 or 60 min)

LY Papp, µ best fit of Normal distribution to Papp (all days, all (88)): 1.9 10^-7 cm/s | LY Papp, µ directly from Papp (all days, all (88)): 2.1 10^-7 cm/s | LY Papp, µ best fit of Normal distribution to Papp (all days, re-use (41)): 1.6 10^-7 cm/s | LY Papp, µ directly from Papp (all days, re-use (41)): 1.8 10^-7 cm/s | LY QA, µ from Log(QA) (all days, single use & re-use, 1st 10 min (65)): 0.18% | LY QA, µ from Log(QA) (all days, single use & re-use, 1st 60 min (88)): 0.20% | LY QA, µ from Log(QA) (all days, single use & re-use, 2nd 10 min (66)): 0.21% | LY QA, µ from Log(QA) (all days, single use & re-use, 3rd 10 min (62)): 0.25% | LY QA, µ from Log(QA) (all days, single use & re-use, 4th 30 min (62)): 0.35% | LY QA, µ from Log(QA) (all days, single use & re-use, all 1st samplings (153)): 0.19% | LY QA, µ from Log(QA) (all days, single use & re-use, all samplings (346)): 0.23% | LY Papp, µ best fit of Normal distribution to Papp (all days, single use (47)): 2.1 10^-7 cm/s | LY Papp, µ directly from Papp (all days, single use (47)): 2.4 10^-7 cm/s | LY Papp, µ best fit of Normal distribution to Papp (day 22, all (35)): 2.0 10^-7 cm/s | LY Papp, µ directly from Papp (day 22, all (35)): 2.3 10^-7 cm/s | QA (%), µ, LY transported during first sampling interval (day 22, batch 1, passage 95, single use, one-time sampling (60 min)): 0.18% | QA (%), µ, LY transported during first sampling interval (day 22, batch 1, passage 98, single use, multi-time sampling (10 min)): 0.19% | QA (%), µ, LY transported during first sampling interval (day 22, batch 1, passage 100, single use, multi-time sampling (10 min)): 0.36% | QA (%), µ, LY transported during first sampling interval (day 22, batch 1, passage 104, single use, multi-time sampling (10 min)): 0.16% | QA (%), µ, LY transported during first sampling interval (day 22, batch 1, passage 105, single use, multi-time sampling (10 min)): 0.22% | QA (%), µ, LY transported during first sampling interval (day 22, batch 2, passage 95, single use, one-time sampling (60 min)): 0.27% | QA (%), µ, LY transported during first sampling interval (day 22, batch 2, passage 98, single use, one-time sampling (60 min)): 0.30% | QA (%), µ, LY transported during first sampling interval (day 22, batch 3, passage 95, single use, one-time sampling (60 min)): 0.19% | LogQA, centre of Normal distribution [1]: around −0.6 | QA, amount of LY that reaches the acceptor compartment [1]: around 0.2% | LY QA, µ from Log(QA) (day 22, single use, 1st 10 min (27)): 0.25% | LY QA, µ from Log(QA) (day 22, single use, 1st 60 min (35)): 0.21% | LY QA, µ from Log(QA) (day 22, single use, 2nd 10 min (28)): 0.29% | LY QA, µ from Log(QA) (day 22, single use, 3rd 10 min (26)): 0.37% | LY QA, µ from Log(QA) (day 22, single use, 4th 30 min (28)): 0.48% | LY QA, µ from Log(QA) (day 22, single use, all 1st samplings (62)): 0.23% | LY QA, µ from Log(QA) (day 22, single use, all samplings (144)): 0.30% | LY Papp, µ best fit of Normal distribution to Papp (day 25, all (29)): 1.7 10^-7 cm/s | LY Papp, µ directly from Papp (day 25, all (29)): 1.9 10^-7 cm/s | QA (%), µ, LY transported during first sampling interval (day 25, batch 1, passage 95, re-use, one-time sampling (60 min)): 0.21% | QA (%), µ, LY transported during first sampling interval (day 25, batch 1, passage 95, single use, one-time sampling (60 min)): 0.13% | QA (%), µ, LY transported during first sampling interval (day 25, batch 1, passage 98, single use, multi-time sampling (10 min)): 0.10% | QA (%), µ, LY transported during first sampling interval (day 25, batch 1, passage 100, re-use, multi-time sampling (10 min)): 0.25% | QA (%), µ, LY transported during first sampling interval (day 25, batch 1, passage 104, single use, multi-time sampling (10 min)): 0.14% | QA (%), µ, LY transported during first sampling interval (day 25, batch 1, passage 105, re-use, multi-time sampling (10 min)): 0.20% | QA (%), µ, LY transported during first sampling interval (day 25, batch 2, passage 95, re-use, one-time sampling (60 min)): 0.16% | QA (%), µ, LY transported during first sampling interval (day 25, batch 2, passage 98, single use, one-time sampling (60 min)): 0.25% | QA (%), µ, LY transported during first sampling interval (day 25, batch 3, passage 95, re-use, one-time sampling (60 min)): 0.19% | LY Papp, µ best fit of Normal distribution to Papp (day 25, re-use (23)): 1.7 10^-7 cm/s | LY Papp, µ directly from Papp (day 25, re-use (23)): 1.9 10^-7 cm/s | LY QA, µ from Log(QA) (day 25, re-use, 1st 10 min (16)): 0.22% | LY QA, µ from Log(QA) (day 25, re-use, 1st 60 min (23)): 0.18% | LY QA, µ from Log(QA) (day 25, re-use, 2nd 10 min (16)): 0.28% | LY QA, µ from Log(QA) (day 25, re-use, 3rd 10 min (16)): 0.27% | LY QA, µ from Log(QA) (day 25, re-use, 4th 30 min (16)): 0.38% | LY QA, µ from Log(QA) (day 25, re-use, all 1st samplings (39)): 0.20% | LY QA, µ from Log(QA) (day 25, single use & re-use, 1st 10 min (22)): 0.19% | LY QA, µ from Log(QA) (day 25, single use & re-use, 1st 60 min (29)): 0.18% | LY QA, µ from Log(QA) (day 25, single use & re-use, 2nd 10 min (22)): 0.25% | LY QA, µ from Log(QA) (day 25, single use & re-use, 3rd 10 min (22)): 0.25% | LY QA, µ from Log(QA) (day 25, single use & re-use, 4th 30 min (22)): 0.36% | LY QA, µ from Log(QA) (day 25, single use & re-use, all 1st samplings (51)): 0.18% | LY QA, µ from Log(QA) (day 25, single use & re-use, all samplings (117)): 0.23% | LY Papp, µ directly from Papp (day 25, single use (6)): 2.1 10^-7 cm/s | LY QA, µ from Log(QA) (day 25, single use, 1st 10 min (6)): 0.12% | LY QA, µ from Log(QA) (day 25, single use, 1st 60 min (6)): 0.18% | LY QA, µ from Log(QA) (day 25, single use, 2nd 10 min (6)): 0.19% | LY QA, µ from Log(QA) (day 25, single use, 3rd 10 min (6)): 0.20% | LY QA, µ from Log(QA) (day 25, single use, 4th 30 min (6)): 0.31% | LY QA, µ from Log(QA) (day 25, single use, all 1st samplings (12)): 0.15% | LY Papp, µ best fit of Normal distribution to Papp (day 28, all (24)): 1.8 10^-7 cm/s | LY Papp, µ directly from Papp (day 28, all (24)): 2.2 10^-7 cm/s | QA (%), µ, LY transported during first sampling interval (day 28, batch 1, passage 95, re-use, one-time sampling (60 min)): 0.33% | QA (%), µ, LY transported during first sampling interval (day 28, batch 1, passage 95, single use, one-time sampling (60 min)): 0.39% | QA (%), µ, LY transported during first sampling interval (day 28, batch 1, passage 98, single use, multi-time sampling (10 min)): 0.09% | QA (%), µ, LY transported during first sampling interval (day 28, batch 1, passage 100, re-use, multi-time sampling (10 min)): 0.09% | QA (%), µ, LY transported during first sampling interval (day 28, batch 1, passage 104, single use, multi-time sampling (10 min)): 0.23% | QA (%), µ, LY transported during first sampling interval (day 28, batch 1, passage 105, re-use, multi-time sampling (10 min)): 0.06% | QA (%), µ, LY transported during first sampling interval (day 28, batch 2, passage 95, re-use, one-time sampling (60 min)): 0.11% | QA (%), µ, LY transported during first sampling interval (day 28, batch 2, passage 98, single use, one-time sampling (60 min)): 0.26% | QA (%), µ, LY transported during first sampling interval (day 28, batch 3, passage 95, re-use, one-time sampling (60 min)): 0.17% | LY Papp, µ best fit of Normal distribution to Papp (day 28, re-use (18)): 1.4 10^-7 cm/s | LY Papp, µ directly from Papp (day 28, re-use (18)): 1.8 10^-7 cm/s | LY QA, µ from Log(QA) (day 28, re-use, 1st 10 min (10)): 0.07% | LY QA, µ from Log(QA) (day 28, re-use, 1st 60 min (18)): 0.16% | LY QA, µ from Log(QA) (day 28, re-use, 2nd 10 min (10)): 0.08% | LY QA, µ from Log(QA) (day 28, re-use, 3rd 10 min (8)): 0.11% | LY QA, µ from Log(QA) (day 28, re-use, 4th 30 min (10)): 0.19% | LY QA, µ from Log(QA) (day 28, re-use, all 1st samplings (28)): 0.12% | LY QA, µ from Log(QA) (day 28, single use & re-use, 1st 10 min (16)): 0.09% | LY QA, µ from Log(QA) (day 28, single use & re-use, 1st 60 min (24)): 0.19% | LY QA, µ from Log(QA) (day 28, single use & re-use, 2nd 10 min (16)): 0.10% | LY QA, µ from Log(QA) (day 28, single use & re-use, 3rd 10 min (14)): 0.13% | LY QA, µ from Log(QA) (day 28, single use & re-use, 4th 30 min (16)): 0.20% | LY QA, µ from Log(QA) (day 28, single use & re-use, all 1st samplings (40)): 0.14% | LY QA, µ from Log(QA) (day 28, single use & re-use, all samplings (86)): 0.14% | LY Papp, µ directly from Papp (day 28, single use (6)): 3.3 10^-7 cm/s | LY QA, µ from Log(QA) (day 28, single use, 1st 10 min (6)): 0.15% | LY QA, µ from Log(QA) (day 28, single use, 1st 60 min (6)): 0.32% | LY QA, µ from Log(QA) (day 28, single use, 2nd 10 min (6)): 0.14% | LY QA, µ from Log(QA) (day 28, single use, 3rd 10 min (6)): 0.15% | LY QA, µ from Log(QA) (day 28, single use, 4th 30 min (6)): 0.24% | LY QA, µ from Log(QA) (day 28, single use, all 1st samplings (12)): 0.22%
Substance: Lucifer yellow CH di-potassium salt [LY]

Source: PMC8537988, “Re-Use of Caco-2 Monolayers in Permeability Assays—Validation Regarding Cell Monolayer Integrity” (Pharmaceutics, 2021)
